Laboratory results from PubChem BioAssay (NCI).
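1) Cells in 96-well plates. 2) Compound, 48 h, 5 concentrations. 3) Linear interpolation between surrounding doses. 4) Unreached endpoint = highest concentration. TGI: concentration producing complete growth inhibition.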

Experiments:
Experiment in all cases: inhibition of tumour cell growth, NCI panel, 48 h
KM12 colon = tested on: KM12 colon
CCRF-CEM leukemia = tested on: CCRF-CEM leukemia
OVCAR-4 ovarian = tested on: OVCAR-4 ovarian
NCI-H23 lung = tested on: NCI-H23 lung
A498 renal = tested on: A498 renal
SF-539 CNS = tested on: SF-539 CNS
RXF 393 renal = tested on: RXF 393 renal
CAKI-1 renal = tested on: CAKI-1 renal
SW-620 colon = tested on: SW-620 colon
MDA-MB-435 = tested on: MDA-MB-435
SK-MEL-2 melanoma = tested on: SK-MEL-2 melanoma
SK-MEL-28 melanoma = tested on: SK-MEL-28 melanoma
HOP-62 NSCLC = tested on: HOP-62 NSCLC
UACC-257 melanoma = tested on: UACC-257 melanoma
RPMI-8226 leukemia = tested on: RPMI-8226 leukemia
LOX IMVI melanoma = tested on: LOX IMVI melanoma
HCC-2998 colon = tested on: HCC-2998 colon
HS 578T breast = tested on: HS 578T breast
MOLT-4 leukemia = tested on: MOLT-4 leukemia
BT-549 breast = tested on: BT-549 breast
NCI-H226 lung = tested on: NCI-H226 lung
SNB-19 CNS = tested on: SNB-19 CNS
HT29 colon = tested on: HT29 colon
OVCAR-5 ovarian = tested on: OVCAR-5 ovarian
NCI-H522 lung = tested on: NCI-H522 lung
SF-268 CNS = tested on: SF-268 CNS
NCI-H460 lung = tested on: NCI-H460 lung
OVCAR-3 ovarian = tested on: OVCAR-3 ovarian
TK-10 renal = tested on: TK-10 renal
HCT-116 colon = tested on: HCT-116 colon
COLO 205 colon = tested on: COLO 205 colon
T-47D breast = tested on: T-47D breast
UACC-62 melanoma = tested on: UACC-62 melanoma
UO-31 renal = tested on: UO-31 renal
SNB-75 CNS = tested on: SNB-75 CNS
786-0 renal = tested on: 786-0 renal
M14 melanoma = tested on: M14 melanoma
MDA-MB-231 breast = tested on: MDA-MB-231 breast
OVCAR-8 ovarian = tested on: OVCAR-8 ovarian
SN12C renal = tested on: SN12C renal
EKVX NSCLC = tested on: EKVX NSCLC
K-562 leukemia = tested on: K-562 leukemia
IGROV1 ovarian = tested on: IGROV1 ovarian
MDA-N = tested on: MDA-N
SK-OV-3 ovarian = tested on: SK-OV-3 ovarian
ACHN renal = tested on: ACHN renal
DU-145 prostate = tested on: DU-145 prostate
MALME-3M melanoma = tested on: MALME-3M melanoma
HL-60(TB) leukemia = tested on: HL-60(TB) leukemia
U251 CNS = tested on: U251 CNS
HCT-15 colon = tested on: HCT-15 colon
SK-MEL-5 melanoma = tested on: SK-MEL-5 melanoma
PC-3 prostate = tested on: PC-3 prostate
SF-295 CNS = tested on: SF-295 CNS
A549 NSCLC = tested on: A549 NSCLC
NCI/ADR-RES ovarian = tested on: NCI/ADR-RES ovarian
SR leukemia = tested on: SR leukemia
MCF7 breast = tested on: MCF7 breast

Compound: CCCCn1cnnc1NS(=O)(=O)c1cc(C)c(Cl)cc1SCC(=O)O
- TGI (KM12 colon): > 10 µM
- TGI (CCRF-CEM leukemia): > 10 µM
- TGI (OVCAR-4 ovarian): > 10 µM
- TGI (NCI-H23 lung): > 10 µM
- TGI (A498 renal): > 10 µM
- TGI (SF-539 CNS): > 10 µM
- TGI (RXF 393 renal): > 10 µM
- TGI (CAKI-1 renal): > 10 µM
- TGI (SW-620 colon): > 10 µM
- TGI (MDA-MB-435): > 10 µM
- TGI (SK-MEL-2 melanoma): > 10 µM
- TGI (SK-MEL-28 melanoma): > 10 µM
- TGI (HOP-62 NSCLC): > 10 µM
- TGI (UACC-257 melanoma): > 10 µM
- TGI (RPMI-8226 leukemia): > 10 µM
- TGI (LOX IMVI melanoma): > 10 µM
- TGI (HCC-2998 colon): > 10 µM
- TGI (HS 578T breast): > 10 µM
- TGI (MOLT-4 leukemia): > 10 µM
- TGI (BT-549 breast): > 10 µM
- TGI (NCI-H226 lung): > 10 µM
- TGI (SNB-19 CNS): > 10 µM
- TGI (HT29 colon): > 10 µM
- TGI (OVCAR-5 ovarian): > 10 µM
- TGI (NCI-H522 lung): > 10 µM
- TGI (SF-268 CNS): > 10 µM
- TGI (NCI-H460 lung): > 10 µM
- TGI (OVCAR-3 ovarian): > 10 µM
- TGI (TK-10 renal): > 10 µM
- TGI (HCT-116 colon): > 10 µM
- TGI (COLO 205 colon): > 10 µM
- TGI (T-47D breast): > 10 µM
- TGI (UACC-62 melanoma): > 10 µM
- TGI (UO-31 renal): > 10 µM
- TGI (SNB-75 CNS): > 10 µM
- TGI (786-0 renal): > 10 µM
- TGI (M14 melanoma): > 10 µM
- TGI (MDA-MB-231 breast): > 10 µM
- TGI (OVCAR-8 ovarian): > 10 µM
- TGI (SN12C renal): > 10 µM
- TGI (EKVX NSCLC): > 10 µM
- TGI (K-562 leukemia): > 10 µM
- TGI (IGROV1 ovarian): > 10 µM
- TGI (MDA-N): > 10 µM
- TGI (SK-OV-3 ovarian): > 10 µM
- TGI (ACHN renal): > 10 µM
- TGI (DU-145 prostate): > 10 µM
- TGI (MALME-3M melanoma): > 10 µM
- TGI (HL-60(TB) leukemia): > 10 µM
- TGI (U251 CNS): > 10 µM
- TGI (HCT-15 colon): > 10 µM
- TGI (SK-MEL-5 melanoma): > 10 µM
- TGI (PC-3 prostate): > 10 µM
- TGI (SF-295 CNS): > 10 µM
- TGI (A549 NSCLC): > 10 µM
- TGI (NCI/ADR-RES ovarian): > 10 µM

Compound: C#CCOCn1ccc(=O)[nH]c1=O
- TGI (KM12 colon): > 100 µM
- TGI (CCRF-CEM leukemia): > 100 µM
- TGI (OVCAR-4 ovarian): > 100 µM
- TGI (SR leukemia): > 100 µM
- TGI (NCI-H23 lung): > 100 µM
- TGI (A498 renal): > 100 µM
- TGI (SF-539 CNS): > 100 µM
- TGI (CAKI-1 renal): > 100 µM
- TGI (SW-620 colon): > 100 µM
- TGI (MDA-MB-435): > 100 µM
- TGI (SK-MEL-2 melanoma): > 100 µM
- TGI (SK-MEL-28 melanoma): > 100 µM
- TGI (HOP-62 NSCLC): > 100 µM
- TGI (UACC-257 melanoma): > 100 µM
- TGI (RPMI-8226 leukemia): > 100 µM
- TGI (LOX IMVI melanoma): > 100 µM
- TGI (HCC-2998 colon): > 100 µM
- TGI (HS 578T breast): > 100 µM
- TGI (MOLT-4 leukemia): > 100 µM
- TGI (NCI-H226 lung): > 100 µM
- TGI (SNB-19 CNS): > 100 µM
- TGI (HT29 colon): > 100 µM
- TGI (OVCAR-5 ovarian): > 100 µM
- TGI (SF-268 CNS): > 100 µM
- TGI (NCI-H460 lung): > 100 µM
- TGI (TK-10 renal): > 100 µM
- TGI (HCT-116 colon): > 100 µM
- TGI (COLO 205 colon): > 100 µM
- TGI (T-47D breast): > 100 µM
- TGI (UACC-62 melanoma): > 100 µM
- TGI (UO-31 renal): > 100 µM
- TGI (SNB-75 CNS): > 100 µM
- TGI (786-0 renal): > 100 µM
- TGI (M14 melanoma): > 100 µM
- TGI (MDA-MB-231 breast): > 100 µM
- TGI (OVCAR-8 ovarian): > 100 µM
- TGI (SN12C renal): > 100 µM
- TGI (EKVX NSCLC): > 100 µM
- TGI (K-562 leukemia): > 100 µM
- TGI (IGROV1 ovarian): > 100 µM
- TGI (MDA-N): > 100 µM
- TGI (MCF7 breast): > 100 µM
- TGI (SK-OV-3 ovarian): > 100 µM
- TGI (ACHN renal): > 100 µM
- TGI (DU-145 prostate): > 100 µM
- TGI (MALME-3M melanoma): > 100 µM
- TGI (HL-60(TB) leukemia): > 100 µM
- TGI (U251 CNS): > 100 µM
- TGI (HCT-15 colon): > 100 µM
- TGI (SK-MEL-5 melanoma): > 100 µM
- TGI (PC-3 prostate): > 100 µM
- TGI (SF-295 CNS): > 100 µM
- TGI (A549 NSCLC): > 100 µM
- TGI (NCI/ADR-RES ovarian): > 100 µM
